# Reference: US3970648A, “2-[2-(5-Nitro-2-furyl)vinyl]-4-(anilino)quinazolines” (Diamond Shamrock Corporation, priority 1974, dated 1976)
# Columns and labels:
# Assay type in all cases: in vivo, broiler cross chicks
# [1] = Growth promotion and feed efficiency in chicks, Example VII (Table I); settings: for Average 4 Week Performance: Feed Efficiency / Average 4 Week Performance: Gain / Improved Response Over Basal Ration + Bacitracin: Feed Efficiency / Improved Response Over Basal Ration + Bacitracin: Gain: 200 g/T in basal ration + bacitracin (4 g/T), 4 weeks; for significance of improved feed efficiencies (level of probability) / significance of improved weight gains (level of probability): 200 g/T, analysis of variance
# From the text: One hundred 20 day-old broiler cross chicks were weight equalized into 15 groups of eight chicks each and placed in battery brooders. The 40 chick treatment groups (five replicates) were fed the one of the three rations described below for a 4 week period. Weekly measurements of body weights and feed consumption were made by replicate, and these measurements used to calculate weight gain and feed efficiency.
# The commercial type broiler starter basal ration which was used in this study was designated as the Basal Ration, and had the following composition:
# The preceding basal ration was mixed with bacitracin at a level of 4 g/T as the only growth stimulant to simulate commercial practice. This mixture was designated as the Basal Ration + Bacitracin (4 g/T) and constituted the negative control in this study.
# A second ration was prepared by fortifying the Basal Ration + bacitracin described above with the Product from Example I above at a level of 200 g/T, and was designated as Basal Ration + Bacitracin + Product of Example I (200 g/T). A third ration was prepared by fortifying the Basal Ration + bacitracin described above with chlortetracycline (CTC) at a level of 200 g/T, and was designated as Basal Ration + Bacitracin + Chlortetracycline (200 g/T). Chlortetracycline served as the positive control in this test because it had shown strong growth promotion in numerous previous tests at this therapeutic level.
# The commercial value of the product of Example I is indicated by the fact that these significant responses were obtained in addition to the growth stimulation provided by the presence of bacitracin in the ration. It is important to note that the negative controls in this example and in Examples VIII and X which follow were characterized by rapid rates of growth. This high plane of growth and feed efficiency performance on the part of the negative controls makes the responses to the test compounds all the more meaningful.
# The term "growth promotion" is used herein to describe the beneficial effect of a compound in eliciting a more rapid rate of weight gain when compared to the weight gain of control animals not fed the compound. "Feed efficiency" is a term regularly used in animal husbandry and is a measure of the pounds of feed required to produce a pound of gain in the weight of the animal. A lower mathmatical value for feed efficiency reflects improved performance. […] In this case, as in the case of the weight gain (fifth column), an improved performance is indicated by a higher positive number.
# [2] = Growth promotion in chicks at low feed levels, Example VIII (Table II); settings: for Average 4 Week Performance: Feed Efficiency / Average 4 Week Performance: Gain / Improved Response Over Basal Ration: Feed Efficiency / Improved Response Over Basal Ration: Gain: 10 g/T in basal ration, 4 weeks
# From the text: Day old broiler cross chicks were weight equalized into groups of eight chicks each and were placed in battery brooders. The 32 chick treatment groups (four replicates) were fed one of the five rations described below for a 4 week period. Weekly measurements of body weights and feed consumption were made by replicate, and these measurements used to calculate weight gain and feed efficiency.
# The basal ration was the basal ration used in Example VII above. The remaining five rations were obtained by mixing the indicated quantities of bacitracin (4 g/T), chlortetracycline (10 g/T), product of Example I (10 g/T), and product of Example III of U.S. Pat. No. 3,542,784 -- Burch (10 g/T) as growth promotants with the basal ration.
# [3] = Growth promotion in chicks, Example XI (Table V); settings: for feed efficiency (in words) / growth rate (in words): 25 g/T; for Average 4 Week Performance: Feed Efficiency / Average 4 Week Performance: Gain / Improved Response Over Basal Ration: Feed Efficiency / Improved Response Over Basal Ration: Gain: 4 weeks
# From the text: (§1) This example compares growth promotion activity of the product of Example I with other growth promotants at a concentration of 25 g/T in the Basal Ration described in Example VII. The other growth promotants include the product described in Example I of U.S. Pat. No. 3,542,784 -- Burch and quinoxaline-1,4-dioxide. Day old broiler cross chicks were weight equalized into groups of eight chicks each, and four replicates of eight chicks each were fed the experimental rations over a 4 week period.
# The growth promotion tests described in Example X were repeated with the exception that five replicates of eight chicks each were fed the formulations described in Table V for 4 weeks.
# [4] = Growth promotion in chicks, titration dosage, Example IX (Table III)
# From the text: The concentrations used in this test were 6.25, 12.5, 25, 50, 100, 200 and 400 g of the Product of Example I per ton of the Basal Ration described in Example VII above. The same number and size chick treatment groups were used in this test as in Example VIII above.
# [5] = Growth promotion in chicks at 25 g/T, Example X (Table IV); settings: 25 g/T
# From the text: as §1
# [6] = Growth promotion in chicks, Example XII first set (Table VI); settings: for Average 4 Week Performance: Feed Efficiency / Average 4 Week Performance: Gain / Improved Response Over Basal Ration: Feed Efficiency / Improved Response Over Basal Ration: Gain: 25 g/T in basal ration, 4 weeks; for growth rate / feed efficiency, production parameters (in words): 25 g/T, first set of tests
# From the text: as §1, with “period. […]” for “period.”
# [7] = Growth promotion in chicks, Example XII repeat (Table VII); settings: for Average 4 Week Performance: Feed Efficiency / Average 4 Week Performance: Gain / Improved Response Over Basal Ration: Feed Efficiency / Improved Response Over Basal Ration: Gain: 25 g/T in basal ration, 4 weeks
# From the text: as §1
# The growth promotion tests described in Example X were repeated with the additional testing the products of Examples II and III.
# [8] = 25 g/T combined with bacitracin 25 g/T
smiles,measurement,setting,value
"CN(C)[C@@H]1C(O)=C(C(N)=O)C(=O)[C@@]2(O)C(O)=C3C(=O)c4c(O)ccc(Cl)c4[C@@](C)(O)[C@H]3C[C@@H]12 [Chlortetracycline, reference compound]",Average 4 Week Performance: Feed Efficiency,[1],1.607
same,Average 4 Week Performance: Gain,[1],732.4 gms
same,Improved Response Over Basal Ration + Bacitracin: Feed Efficiency,[1],+6.6%
same,Improved Response Over Basal Ration + Bacitracin: Gain,[1],+5.5%
same,significance of improved feed efficiencies (level of probability),[1],99.9%
same,significance of improved weight gains (level of probability),[1],99.5%
same,Average 4 Week Performance: Feed Efficiency,[2],1.745
same,Average 4 Week Performance: Gain,[2],714.2 g
same,Improved Response Over Basal Ration: Feed Efficiency,[2],+0.9%
same,Improved Response Over Basal Ration: Gain,[2],-0.9%
same,feed efficiency (in words),[3],moderate improvements in feed efficiencies
same,growth rate (in words),[3],slight improvements in growth rates
same,Average 4 Week Performance: Feed Efficiency,[3]; 25 g/T in basal ration,1.717
same,Average 4 Week Performance: Gain,[3]; 25 g/T in basal ration,752.5 g
same,Improved Response Over Basal Ration: Feed Efficiency,[3]; 25 g/T in basal ration,+4.7%
same,Improved Response Over Basal Ration: Gain,[3]; 25 g/T in basal ration,+2.7%
"O=[N+]([O-])c1ccc(C=Cc2nc(Nc3ccc(O)cc3)c3ccccc3n2)o1 [Example I, 2-[2-(5-nitro-2-furyl)vinyl]-4-(p-hydroxyanilino)quinazoline]",Average 4 Week Performance: Feed Efficiency,[1],1.597
same,Average 4 Week Performance: Gain,[1],739.8 gms
same,Improved Response Over Basal Ration + Bacitracin: Feed Efficiency,[1],+7.2%
same,Improved Response Over Basal Ration + Bacitracin: Gain,[1],+6.5%
same,significance of improved feed efficiencies (level of probability),[1],99.9%
same,significance of improved weight gains (level of probability),[1],99.5%
same,Average 4 Week Performance: Feed Efficiency,[2],1.671
same,Average 4 Week Performance: Gain,[2],750.7 g
same,Improved Response Over Basal Ration: Feed Efficiency,[2],+5.1%
same,Improved Response Over Basal Ration: Gain,[2],+4.2%
same,growth promotion (in words),"[2]; 10 g/T, compared with other growth promotants of the test",greater growth promotion than any of the other growth promotants used in this test
same,Average 4 Week Performance: Feed Efficiency,[4]; 6.25 g/T,1.657
same,Average 4 Week Performance: Gain,[4]; 6.25 g/T,714.6 g
same,Improved Response Over Basal Ration: Feed Efficiency,[4]; 6.25 g/T,+3.4%
same,Improved Response Over Basal Ration: Gain,[4]; 6.25 g/T,-3.4%
same,activity (in words),[4]; 6.25 g/T,little or no activity
same,Average 4 Week Performance: Feed Efficiency,[4]; 12.5 g/T,1.652
same,Average 4 Week Performance: Gain,[4]; 12.5 g/T,765.3 g
same,Improved Response Over Basal Ration: Feed Efficiency,[4]; 12.5 g/T,+3.7%
same,Improved Response Over Basal Ration: Gain,[4]; 12.5 g/T,+3.4%
same,Average 4 Week Performance: Feed Efficiency,[4]; 25 g/T,1.603
same,Average 4 Week Performance: Gain,[4]; 25 g/T,805.7 g
same,Improved Response Over Basal Ration: Feed Efficiency,[4]; 25 g/T,+6.5%
same,Improved Response Over Basal Ration: Gain,[4]; 25 g/T,+8.9%
same,Average 4 Week Performance: Feed Efficiency,[4]; 50 g/T,1.609
same,Average 4 Week Performance: Gain,[4]; 50 g/T,785.3 g
same,Improved Response Over Basal Ration: Feed Efficiency,[4]; 50 g/T,+6.2%
same,Improved Response Over Basal Ration: Gain,[4]; 50 g/T,+6.1%
same,Average 4 Week Performance: Feed Efficiency,[4]; 100 g/T,1.663
same,Average 4 Week Performance: Gain,[4]; 100 g/T,742.7 g
same,Improved Response Over Basal Ration: Feed Efficiency,[4]; 100 g/T,+3.0%
same,Improved Response Over Basal Ration: Gain,[4]; 100 g/T,+0.4%
same,weight gain improvement (in words),[4]; 100 g/T,unexplained absence of weight gain improvement
same,Average 4 Week Performance: Feed Efficiency,[4]; 200 g/T,1.609
same,Average 4 Week Performance: Gain,[4]; 200 g/T,782.5 g
same,Improved Response Over Basal Ration: Feed Efficiency,[4]; 200 g/T,+6.2%
same,Improved Response Over Basal Ration: Gain,[4]; 200 g/T,+5.8%
same,Average 4 Week Performance: Feed Efficiency,[4]; 400 g/T,1.678
same,Average 4 Week Performance: Gain,[4]; 400 g/T,751.5 g
same,Improved Response Over Basal Ration: Feed Efficiency,[4]; 400 g/T,+2.2%
same,Improved Response Over Basal Ration: Gain,[4]; 400 g/T,+1.6%
same,response (in words),[4]; 400 g/T,sharp downturn
same,level at which noticeable growth promotion began,[4]; in vivo,12.5 g/T
same,optimum concentration (economics and efficacy),[4]; in vivo,25 g/T
same,effect on feed efficiency (in words),[5],strongest response in growth rate and feed efficiency
same,growth response (in words),[5],strongest response in growth rate and feed efficiency
same,feed efficiency (in words),[3],substantial improvement in feed efficiency
same,growth rate (in words),[3],moderate improvement in growth rate
same,combination effect (in words),[3]; [8],synergistic effects
same,Average 4 Week Performance: Feed Efficiency,[3]; [8],1.666
same,Average 4 Week Performance: Gain,[3]; [8],766.4 g
same,Improved Response Over Basal Ration: Feed Efficiency,[3]; [8],+7.5%
same,Improved Response Over Basal Ration: Gain,[3]; [8],+4.6%
same,Average 4 Week Performance: Feed Efficiency,[3]; 25 g/T in basal ration,1.677
same,Average 4 Week Performance: Gain,[3]; 25 g/T in basal ration,756.1 g
same,Improved Response Over Basal Ration: Feed Efficiency,[3]; 25 g/T in basal ration,+6.9%
same,Improved Response Over Basal Ration: Gain,[3]; 25 g/T in basal ration,+3.2%
same,Average 4 Week Performance: Feed Efficiency,[6],1.623
same,Average 4 Week Performance: Gain,[6],762.1 g
same,Improved Response Over Basal Ration: Feed Efficiency,[6],+0.7%
same,Improved Response Over Basal Ration: Gain,[6],+2.4%
same,"growth rate / feed efficiency, production parameters (in words)",[6],moderate improvements in production parameters
same,Average 4 Week Performance: Feed Efficiency,[7],1.706
same,Average 4 Week Performance: Gain,[7],695.3 g
same,Improved Response Over Basal Ration: Feed Efficiency,[7],+4.4%
same,Improved Response Over Basal Ration: Gain,[7],+1.9%
same,"growth rate / feed efficiency, production parameters (in words)","[7]; 25 g/T, second set of tests",moderate improvements in production parameters
"O=[N+]([O-])c1ccc(C=Cc2nc(Nc3cccc(O)c3)c3ccccc3n2)o1 [Example II, 2-[2-(5-nitro-2-furyl)vinyl]-4-(m-hydroxyanilino)quinazoline]",Average 4 Week Performance: Feed Efficiency,[6],1.580
same,Average 4 Week Performance: Gain,[6],773.0 g
same,Improved Response Over Basal Ration: Feed Efficiency,[6],+3.3%
same,Improved Response Over Basal Ration: Gain,[6],+3.9%
same,"growth rate / feed efficiency, production parameters (in words)",[6],moderate improvements
same,Average 4 Week Performance: Feed Efficiency,[7],1.672
same,Average 4 Week Performance: Gain,[7],696.4 g
same,Improved Response Over Basal Ration: Feed Efficiency,[7],+6.3%
same,Improved Response Over Basal Ration: Gain,[7],+2.0%
